The source of these data is patent publication US20150289512A1, “METHOD FOR PROMOTING PLANT GROWTH” (SUMITOMO CHEMICAL COMPANY, LIMITED, priority 2012, published 2015).

Holding throughout (type): in vivo
Test [1] has as its system Rice (variety: Nipponbare). The test is described as follows: Test Example 3: promotion of root growth by hydroponics of rice, 0.1 ppm. The following applies: hydroponic solution containing the test compound at 0.1 ppm, average of 4 or 5 individuals. How it is done: (§1) Test for Evaluating Promotion of Root Growth by Hydroponics of Rice
(§2) Rice (variety: Nipponbare)
A DMSO solution, which contained one of the compounds 2, 6, 7, 16, 20, 33, 34, 36, 37, 38, 40, 41, 43, 44, 45, 46, 47, 48, 50, 51, 52, 53, 54, 55, 56, 61, 64, 67, 68, 71, 72, 73, 74, 75, 76, 79, 80, 81 and 83 of the present invention at a concentration of 1,000 ppm, was added to Hoagland hydroponic solution (Hoagland and Arnon, California Agricultural Experiment Station 1950 Circular 347 pp. 34) of ¼-fold concentration at a volume ratio of 1/10,000. In this manner, hydroponic solutions containing one of the compounds 2, 6, 7, 16, 20, 33, 34, 36, 37, 38, 40, 41, 43, 44, 45, 46, 47, 48, 50, 51, 52, 53, 54, 55, 56, 61, 64, 67, 68, 71, 72, 73, 74, 75, 76, 79, 80, 81 and 83 of the present invention at 0.1 ppm were prepared respectively. As an untreated control plot, a hydroponic solution obtained by adding DMSO to Hoagland hydroponic solution of ¼-fold concentration at a volume ratio of 1/10,000 was used.
Rice seeds were soaked in a 1% aqueous sodium hypochlorite solution for 10 minutes, then soaked in a 70% ethanol solution for surface sterilization, and then washed with distilled water. The sterilized seeds were soaked in a hydroponic solution containing the test compound described above at 0.1 ppm and incubated in a dark place for 3 days at 28° C. to perform treatment for hastening germination.
Thereafter, 30 ml of hydroponic solution containing the test compound at 0.1 ppm was dispensed in a plastic tube (diameter of 20 mm×height of 113 mm) of which the side was covered with cardboard to block light. A float prepared using a styrene board and vinyl mesh was floated, and the rice seeds that had undergone the treatment for hastening germination were placed on the float on the surface of the hydroponic solution. The seeds were cultivated for 3 days at 26° C., an illuminance of 4,000 lux of the top surface of the tube, a humidity of 50%, and a day length of 16 hours.
The nursery plants of rice obtained after culturing were measured in terms of the length of seminal root by using WinRHIZO system (manufactured by Regent Instruments Inc). For each test plot, an average of the measured values of the seminal root of 4 or 5 individuals was determined.

Test [2] relates to Corn seeds (variety: Pioneer 120 31P41). Kind of test: Test Example 14: growth promotion under low-temperature stress by soil drench treatment of corn. The settings on record: soil drench 20 ml, low-temperature stress 5 days at 2.5° C., health score 0-5, average of 4 individuals; for change in vivo at 3 ppm: concentration tested 3 ppm. On the procedure:
Test for Evaluating Growth Promotion Under Low-Temperature Stress by Soil Drench Treatment of Corn
Corn seeds (variety: Pioneer 120 31P41) were seeded in a culture soil (Aisai) in a plastic pot (φ55 mm×height of 58 mm), and cultivated for 7 days at 20-25° C., an illuminance of about 5,000 lux, and a day length of 16 hours.
A DMSO solution, which contained one of the compounds 1 to 9, 16, 17, 20, 23, 24, 28 to 32, 34, 45, 48, 50, 82 and 85 of the present invention at a concentration of 1,000-fold concentration of each test concentration, was prepared, and then diluted with distilled water to obtain each test solution. After that, 20 ml of the obtained test solution was used to perform soil drench treatment on the foot of the test plants. The test plants were cultivated for 2 days under the conditions of a temperature of 27° C., a humidity of 40-80%, an illuminance of about 5,000 lux, and a day length of 16 hours. This was used as a test plot treated with the compound. A plot having undergone the soil drench treatment with 20 ml of a 0.1% DMSO aqueous solution instead of the above DMSO solution containing the compound was used as an untreated control plot.
The plants having undergone the soil drench treatment were cultivated for 5 days under the conditions of a temperature of 2.5° C., a humidity of 40-80%, an illuminance of about 5,000 lux, and a day length of 16 hours, thereby exposing to low-temperature stress. After the exposure to the low-temperature stress, the plants were cultivated for 4 days under the conditions of a temperature of 27° C., a humidity of 40-80%, an illuminance of about 5,000 lux, and a day length of 16 hours.
After the cultivation, the health of each plant was scored according to the following evaluation index.
5: 4 or more leaves in which ⅔ or more of the area was healthy
4: 3 leaves in which ⅔ or more of the area was healthy
3: 2 leaves in which ⅔ or more of the area was healthy
2: 1 leaf in which ⅔ or more of the area was healthy
1: No leaf in which ⅔ or more of the area was healthy
An average of the scores of the health of 4 individuals was determined.

Test [3] deals with Rice (variety: Nipponbare). The test is described as follows: Test Example 1: promotion of root growth by hydroponics of rice, 10 ppm. The following applies: Oryza sativa, hydroponic solution containing the test compound at 10 ppm, average of 4 or 5 individuals, read-out: Relative value of length of seminal root (%-untreated control plot). A digest of the protocol: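 Surface-sterilised seeds germinated 3 days in the dark at 28° C in hydroponic solution with compound at 10 ppm, then grown 3 days hydroponically with compound at 10 ppm (26° C, 4,000 lux, 16 h day, 50% humidity). Seminal root length measured by image analysis, averaged over 4 or 5 plants per plot.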

The test system of test [4] is Nicotiana benthamiana. The test is described as follows: Test Example 4: growth promotion under low-temperature stress by hydroponics of Nicotiana benthamiana, 10 ppm. The settings on record: 10 ppm in medium, low-temperature stress 7 days at 1.5±1.0° C., green leaf area 3 days later, equation (1). How it is done:
Test for Evaluating Growth Promotion Under Low-Temperature Stress by Hydroponics of Nicotiana benthamiana
A DMSO solution, which contained one of the compounds 1, 8, 9, 13, 18, 19, 22, 23, 29, 32, 33, 34, 39, 40, 41, 43, 44, 51, 53, 54, 55, 56, 58, 60, 62, 63, 64, 65, 67, 69, 71, 73, 74, 75, 77, 79, 82, 83 and 86 of the present invention at a concentration of 10,000 ppm, was prepared. The DMSO solution of the compound of the present invention was added at a volume ratio of 1/1,000 to the Murashige•Scoog medium of a ½-fold concentration (a medium containing 2.3 g of mixed salts for the Murashige•Scoog medium (manufactured by Wako Pure Chemical Industries, Ltd.), 200 mg of Myo-inositol (manufactured by Sigma-Aldrich Co. LLC.), 2 mg of nicotinic acid (manufactured by Wako Pure Chemical Industries, Ltd.), 2 mg of pyridoxine hydrochloride (manufactured by Wako Pure Chemical Industries, Ltd.), 20 mg of thiamine hydrochloride (manufactured by Wako Pure Chemical Industries, Ltd.), 20 g of sucrose (manufactured by Wako Pure Chemical Industries, Ltd.), and 1 g of MES (manufactured by DOJINDO LABORATORIES) per 1 L of water and having pH adjusted to 5.8), thereby preparing a medium containing the compound of the present invention at a concentration of 10 ppm.
Seeds of Nicotiana benthamiana were seeded in the 5 μL of the medium and cultured overnight at 22° C. Thereafter, 45 μL of the medium containing the compound of the present invention at a concentration of 10 ppm was added thereto, and the seeds are cultivated for 7 days at 22° C., an illuminance of 4,000 lux, and a day length of 16 hours, and the nursery plants raised from the Nicotiana benthamiana were treated with the compound. Moreover, instead of the above medium, a test plot, which was obtained by performing the same treatment by using a medium prepared by adding DMSO to the Murashige•Scoog medium of ½-fold concentration at a volume ratio of 1/1,000, was used as a control plot not treated with the compound.
The nursery plants of the Nicotiana benthamiana treated with the compound were subjected to low-temperature treatment by being cultivated for 7 days at 1.5±1.0° C., an illuminance of 2,000 lux, and a day length of 16 hours.
The nursery plants of the Nicotiana benthamiana having undergone the low-temperature stress treatment were cultivated for 3 days at 22° C., an illuminance of 4,000 lux, and a day length of 16 hours. Thereafter, the area of green leaf was quantified by Scanalyzer HTS (manufactured by LemnaTec GmbH). Moreover, the value of the control plot not treated with the compound that had not yet been subjected to the low-temperature stress treatment was measured in the same manner. A value of a relative leaf area was calculated based on the following equation (1), and if the value of a relative leaf area was 5 or greater, the compound was evaluated to have a mitigating effect. As a result of the evaluation, it was confirmed that when the plant was treated with one of the compounds 1, 8, 9, 13, 18, 19, 22, 23, 29, 32, 33, 34, 39, 40, 41, 43, 44, 51, 53, 54, 55, 56, 58, 60, 62, 63, 64, 65, 67, 69, 71, 73, 74, 75, 77, 79, 82, 83 and 86 of the present invention at 10 ppm, the value of a relative leaf area was 5 or greater, compared to the area of green leaf of the control plot not treated with compound. Accordingly, it was confirmed that the treatment using the compound of the present invention brings about a growth promotion effect.
Relative leaf area=100*(a green area of a plot treated with the compound of the present invention−a green area of a control plot not treated with the compound of the present invention)/(a green area of a control plot not treated with the compound of the present invention that has not yet been subjected to low-temperature stress treatment−a green area of a control plot not treated with the compound of the present invention) Equation (1): […]

The test system of test [5] is Rice (variety: Nipponbare). The test is described as follows: Test Example 2: promotion of root growth by hydroponics of rice, 1 ppm. The following applies: hydroponic solution containing the test compound at 1 ppm, average of 4 or 5 individuals. How it is done:
as §1, §2
A DMSO solution, which contained one of the compounds 1, 3, 11, 12, 14, 15, 17, 21, 28, 30, 33, 34, 35, 36, 37, 38, 40, 41, 43, 44, 45, 46, 47, 49, 50, 51, 52, 53, 54, 55, 56, 61, 62, 63, 65, 67, 68, 69, 70, 73, 74, 75, 76, 77, 80, 82, 83, 85 and 86 of the present invention at a concentration of 10,000 ppm, was added to Hoagland hydroponic solution (Hoagland and Arnon, California Agricultural Experiment Station 1950 Circular 347 pp. 34) of ¼-fold concentration at a volume ratio of 1/10,000. In this manner, hydroponic solutions containing one of the compounds 1, 3, 11, 12, 14, 15, 17, 21, 28, 30, 33, 34, 35, 36, 37, 38, 40, 41, 43, 44, 45, 46, 47, 49, 50, 51, 52, 53, 54, 55, 56, 61, 62, 63, 65, 67, 68, 69, 70, 73, 74, 75, 76, 77, 80, 82, 83, 85 and 86 of the present invention at 1 ppm were prepared respectively. As an untreated control plot, a hydroponic solution obtained by adding DMSO to Hoagland hydroponic solution of ¼-fold concentration at a volume ratio of 1/10,000 was used. Rice seeds were soaked in a 1% aqueous sodium hypochlorite solution for 10 minutes, then soaked in a 70% ethanol solution for surface sterilization, and then washed with distilled water. The sterilized seeds were soaked in a hydroponic solution containing the test compound described above at 1 ppm and incubated in a dark place for 3 days at 28° C. to perform treatment for hastening germination.
Thereafter, 30 ml of hydroponic solution containing the test compound at 1 ppm was dispensed in a plastic tube (diameter of 20 mm×height of 113 mm) of which the side was covered with cardboard to block light. A float prepared using a styrene board and vinyl mesh was floated, and the rice seeds that had undergone the treatment for hastening germination were placed on the float on the surface of the hydroponic solution. The seeds were cultivated for 3 days at 26° C., an illuminance of 4,000 lux of the top surface of the tube, a humidity of 50%, and a day length of 16 hours.
The nursery plants of rice obtained after cultivation were measured in terms of the length of seminal root by using WinRHIZO system (manufactured by Regent Instruments Inc). For each test plot, an average of the measured values of the seminal root of 4 or 5 individuals was determined.

[6] abbreviates: Zea mays, 120 h, read-out: Relative value of score (%- untreated control plot).

Some results are limits rather than exact numbers.

Consider `COC(=O)c1cc2c(C(F)(F)F)cccc2[nH]1` [Compound 6], for which, in test [1], the “Relative value of length of seminal root (%-untreated control plot)” value (“Relative value … (%-untreated control plot)” for short) is given as over 5%. In test [2] (concentration tested 10 ppm), the “Relative value of score (%- untreated control plot)” value is listed as over 5%.
With `COC(=O)c1cc2cc(C(F)(F)F)ccc2[nH]1` [Compound 8, methyl 5-trifluoromethylindole-2-carboxylate], the change in vivo at 10 ppm in test [3] was over 5%. For the same compound, the relative leaf area at 10 ppm in test [4] is at least 5%. Besides, the change in vivo at 3 ppm in test [2] (setting [6]) is over 5%.
For `O=C(O)c1nc2cccnc2[nH]1` [Compound 28], the “Relative value … (%-untreated control plot)” value in test [5] was over 5%. The “Relative value of score (%- untreated control plot)” value in test [2] (concentration tested 10 ppm) is over 5%.
For the compound `COC(=O)c1nc2cc(C(F)(F)F)ccc2s1` [Compound 29, methyl 5-trifluoromethylbenzothiazole-2-carboxylate], the change in vivo at 10 ppm in test [3] was over 5%. In test [4], this compound came in with a relative leaf area at 10 ppm of at least 5%. For the same compound, the change in vivo at 3 ppm in test [2] (setting [6]) is over 5%.
Take `COC(=O)c1nc2ccccc2s1` [Compound 30]: the “Relative value … (%-untreated control plot)” value in test [5] is over 5%. Further, the “Relative value of score (%- untreated control plot)” value in test [2] (concentration tested 10 ppm) is on record as over 5%.
Take `COC(=O)c1cc2ccc(C(F)(F)F)cc2o1` [Compound 48]: the change in vivo at 0.1 ppm in test [1] (Oryza sativa, read-out: Relative value of length of seminal root (%-untreated control plot)) is over 5%. Besides, the change in vivo at 10 ppm in test [2] (Zea mays, 120 h, concentration tested 10 ppm, read-out: Relative value of score (%- untreated control plot)) was over 5%.
